The experiment relates to human IgG (polyclonal antirhamnose antibodies). In words: BLI monitoring of covalent reaction with human IgG (Figure 4B). The format is binding. As to conditions: 10 μM cARM, 230 μM human IgG, up to 25 h. An excerpt: The design of rhamnose-SO2F-cARM was again supported by in-silico docking and predicted to preorganize electrophilic SO2F proximal to lysine 104 and serine 53 of the anti-23F heavy chain as well as tyrosine 32 of the light chain (Figure S3). To evaluate the capacity of rhamnose-SO2F-cARMs to specifically label polyclonal antirhamnose antibodies, a tool cARM with a biotin TBD was synthesized (compound 12, Figure 4A, Scheme S5). As an orthogonal kinetics assay to fluorescent gels, tool compound 12 labeling kinetics was first evaluated using an in-house BLI assay and compared to acyl imidazole cARM and ARM analogs. […] Solutions were immediately loaded onto streptavidin probes (Figure 4B, Figure S8). In this assay, rhamnose competition blocks noncovalent antirhamnose recruitment, thus the signal amplitude is directly proportional to the covalently labeled antibody product.
Figure 4 Selectivity and kinetic analysis of optimized Rha-SO2F-cARMs A. Chemical structures of tool compounds used in this study. B. cARM 12 (10 μM) was incubated with human IgG or BSA (230 μM) then diluted 8× with 100 mM competitor rhamnose spiked kinetics buffer and loaded onto streptavidin probes in BLI. The association plateau was plotted against time to yield the % labeled vs time covalent labeling curve C. Kinetic fluorescence SDS-PAGE assay similar to that in Figure 2D. […]

Molecules are shown by their SMILES.

Consider `C[C@@H]1O[C@@H](OCc2cn(CCc3cn(C(=O)OCCOCCOCCOCCOCCOCCOCCOCCNC(=O)CCCC[C@@H]4SC[C@@H]5NC(=O)N[C@@H]54)cn3)nn2)[C@H](O)[C@H](O)[C@H]1O` [compound 4], for which the “progress of labeling reaction” value is given as “still in the linear phase of the reaction”.

These data come from publication PMC10683482, “Offsetting Low-Affinity Carbohydrate Binding with Covalency to Engage Sugar-Specific Proteins for Tumor-Immune Proximity Induction” (ACS Central Science, 2023).
